Patent US20110071158A1, “NEW COMPOUNDS” (BOEHRINGER INGELHEIM INTERNATIONAL GMBH, priority 2009, published 2011)

Target: T1, PTK2 enzyme (Homo sapiens, UniProt Q05397)
T1 construct: purchased Invitrogen PV3832
Assay: PTK2 enzyme test, Assay 1 (DELFIA, poly-Glu-Tyr substrate, antibody PT60)
Format: biochemical
Settings: Assay 1 (values without *); 1 h pre-incubation, 2% DMSO
Protocol: This test uses active PTK2 enzyme (Invitrogen Code PV3832) and poly-Glu-Tyr (4:1, Sigma P-0275) as the kinase substrate. The kinase activity is detected through the phosphorylation of the substrate in a DELFIA™ assay. The phosphorylated substrate is detected with the europium-labelled phosphotyrosine antibody PT60 (Perkin Elmer, No.: AD00400).
In order to determine concentration-activity curves with PTK2-inhibitors the compounds are serially diluted in 10% DMSO/H2O and 10 μL of each dilution are placed in each well of a 96-well microtitre plate (clear plate with a U-shaped base, Greiner No. 650101) (the inhibitors are tested in duplicates) and mixed with 10 μL/well of PTK2 kinase (0.01 μg/well). PTK2 kinase has been correspondingly diluted beforehand with kinase dilution buffer (20 mM TRIS/HCl pH 7.5, 0.1 mM EDTA, 0.1 mM EGTA, 0.286 mM sodium orthovanadate, 10% glycerol with the addition of freshly prepared BSA (fraction V, 1 mg/mL) and DTT (1 mM)). The test compound and the PTK2 kinase are pre-incubated for 1 h at RT and shaken at 500 revolutions per min. The reaction is started by the addition of 10 μL/well poly (Glu,Tyr) substrate (25 μg/well poly (Glu, Tyr), 0.05 μg/well biotinylated poly (Glu,Tyr) dissolved in 250 mM TRIS/HCl pH 7.5, 9 mM DTT)—the final concentration of DMSO is 2%. Then 20 μL of ATP Mix (30 mM TRIS/HCl pH 7.5, 0.02% Brij, 0.2 mM sodium orthovanadate, 10 mM magnesium acetate, 0.1 mM EGTA, 1× phosphatase inhibitor cocktail 1 (Sigma, No.: P2850), 50 μM ATP (Sigma, No.: A3377; 15 mM stock solution)) are added. After 1 h of kinase reaction (the plates are shaken at 500 rpm), the reaction is stopped by the addition of 12 μL/well 100 mM EDTA, pH 8.0 and shaken for a further 5 min at RT (500 rpm). 55 μL of the reaction mixture are transferred into a streptavidin plate (Strepta Well High Bind (transparent, 96-well) made by Roche, No.: 11989685001) and incubated for 1 h at RT (shaking at 500 rpm). Then the microtitre plate is washed three times with 200 μL/well D-PBS (Invitrogen, No. 14190). 100 μL of a solution containing DELFIA Eu-N1 Anti-Phosphotyrosine PT60 antibody (Perkin Elmer, No.: AD0040, diluted 1:2000 in DELFIA test buffer (Perkin Elmer, No.: 1244-111)) is then added and the mixture is incubated for 1 h at RT (shaking at 500 rpm). Then the plate is washed three times with 200 μL/well DELFIA washing buffer (Perkin Elmer, No.: 1244-114), 200 μL/well strengthening solution (Perkin Elmer, No.: 1244-105) are added and the mixture is incubated for 10 min at RT (shaking at 300 rpm).
The time-delayed europium fluorescence is then measured in a microtitre plate reader (VICTOR^3, Perkin Elmer). […] Wells that contain test buffer instead of enzyme are used as a control of the background kinase activity.
The IC50 values are determined from analyses of the concentration activity by iterative calculation with the aid of a sigmoid curve analysis algorithm (FIFTY, based on Graph PAD Prism Version 3.03) with a variable Hill coefficient.

T1 sequence (Q05397 whole entry): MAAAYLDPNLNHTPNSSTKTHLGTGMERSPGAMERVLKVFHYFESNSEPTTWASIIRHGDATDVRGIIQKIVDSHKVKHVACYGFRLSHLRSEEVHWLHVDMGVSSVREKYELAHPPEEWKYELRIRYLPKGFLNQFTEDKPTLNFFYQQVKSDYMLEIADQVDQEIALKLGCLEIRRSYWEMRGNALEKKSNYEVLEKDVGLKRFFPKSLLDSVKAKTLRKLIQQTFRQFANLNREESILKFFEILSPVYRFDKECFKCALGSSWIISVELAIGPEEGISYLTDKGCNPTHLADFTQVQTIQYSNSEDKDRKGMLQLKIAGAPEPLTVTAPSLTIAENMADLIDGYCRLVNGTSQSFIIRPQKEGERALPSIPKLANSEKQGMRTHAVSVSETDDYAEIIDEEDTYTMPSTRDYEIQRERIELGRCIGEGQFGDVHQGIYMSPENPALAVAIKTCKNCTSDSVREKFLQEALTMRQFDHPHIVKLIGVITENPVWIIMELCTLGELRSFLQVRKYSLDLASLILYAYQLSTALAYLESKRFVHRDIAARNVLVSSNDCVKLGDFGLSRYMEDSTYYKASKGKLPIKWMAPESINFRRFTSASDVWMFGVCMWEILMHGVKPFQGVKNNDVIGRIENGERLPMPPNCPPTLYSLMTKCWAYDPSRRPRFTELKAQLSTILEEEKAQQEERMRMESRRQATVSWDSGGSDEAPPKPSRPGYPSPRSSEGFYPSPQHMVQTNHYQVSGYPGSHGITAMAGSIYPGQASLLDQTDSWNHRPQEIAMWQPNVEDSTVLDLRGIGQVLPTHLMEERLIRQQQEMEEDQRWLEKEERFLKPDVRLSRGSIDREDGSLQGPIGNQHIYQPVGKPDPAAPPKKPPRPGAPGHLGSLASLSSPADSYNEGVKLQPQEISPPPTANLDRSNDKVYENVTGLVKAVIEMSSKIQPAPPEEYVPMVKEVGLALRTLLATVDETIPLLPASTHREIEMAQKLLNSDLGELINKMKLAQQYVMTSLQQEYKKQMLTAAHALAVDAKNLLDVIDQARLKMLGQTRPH

| Compound | IC50 |
| --- | --- |
| COc1ccccc1Nc1ncc(Br)c(N[C@@H]2CCCC[C@H]2NC(C)=O)n1 [Example I-53] | 8 nM |
| COc1ccc(Nc2ncc(Br)c(N[C@@H]3CCCC[C@H]3NC(C)=O)n2)c(OC)c1 [Example I-54] | 4 nM |
| COc1cc(C(=O)N(C)C)ccc1Nc1ncc(Cl)c(N[C@@H]2CCCC[C@H]2NC(C)=O)n1 [Example I-57] | 26 nM |
| COc1cc(C(=O)NC2CCN(C)CC2)ccc1Nc1ncc(C(F)(F)F)c(N[C@@H]2CCCC[C@H]2NC(=O)CN2CCN(C)CC2)n1 [Example I-66] | 200 nM |
| COc1ccc(Nc2ncc(Cl)c(N[C@@H]3CCCC[C@H]3NC(C)=O)n2)c(OC)c1 [Example I-67] | 10 nM |
| COc1cc(C(=O)NC2CCN(C)CC2)ccc1Nc1ncc(C(F)(F)F)c(N[C@@H]2CCCC[C@H]2NC(=O)CN2CCOCC2)n1 [Example I-68] | 200 nM |
| COc1ccc(Nc2ncc(C(F)(F)F)c(N[C@@H]3CCCC[C@H]3NC(=O)CC(C)C)n2)c(OC)c1 [Example I-70] | 440 nM |
| CCN1CCC(NC(=O)c2ccc(Nc3ncc(C(F)(F)F)c(N[C@@H]4CCCC[C@H]4N(C)C(C)=O)n3)c(OC)c2)CC1 [Example I-71] | 10 nM |
| COc1cc(C(=O)N(C)C)ccc1Nc1ncc(C(F)(F)F)c(N[C@@H]2CCCC[C@H]2N(C)C(C)=O)n1 [Example I-72] | 31 nM |
| CNCc1ccc(Nc2ncc(C(F)(F)F)c(N[C@@H]3CCCC[C@H]3NC(=O)COC)n2)c(OC)c1 [Example I-78] | 4 nM |
| COc1cc(C(=O)NC2CCN(C)CC2)ccc1Nc1ncc(C(F)(F)F)c(N[C@@H]2CCCC[C@H]2N(C)C(=O)C(C)C)n1 [Example I-80] | 9 nM |
| COc1cc(C(=O)NC2CCN(C)CC2)ccc1Nc1ncc(C(F)(F)F)c(N[C@@H]2CCCC[C@H]2N(C)C(=O)C2CC2)n1 [Example I-83] | 4 nM |
| COc1cc(C(=O)NC2CCN(C)CC2)ccc1Nc1ncc(C(F)(F)F)c(N[C@@H]2CCCC[C@H]2N(C)C(=O)C2CCC2)n1 [Example I-84] | 37 nM |
| COc1cc(C(=O)NC2CCOCC2)c(F)cc1Nc1ncc(C(F)(F)F)c(N[C@@H]2CCCC[C@H]2NC(C)=O)n1 [Example I-86] | 7 nM |
| COc1cc(C(=O)O)ccc1Nc1ncc(C(F)(F)F)c(N[C@@H]2CCCC[C@H]2NC(C)=O)n1 [Example I-89] | 9 nM |
| COC(=O)N(C)[C@@H]1CCCC[C@H]1Nc1nc(Nc2ccc(C(=O)NC3CCN(C)CC3)cc2OC)ncc1C(F)(F)F [Example I-95] | 7 nM |
| CCN(C(C)=O)[C@@H]1CCCC[C@H]1Nc1nc(Nc2ccc(C(=O)NC3CCN(C)CC3)cc2OC)ncc1C(F)(F)F [Example I-99] | 3 nM |
| COc1cc(C(=O)NC2CCN(C)CC2)ccc1Nc1ncc(C(F)(F)F)c(N[C@@H]2CCCC[C@H]2N(CC2CC2)C(C)=O)n1 [Example I-103] | 7 nM |
| COc1cc(C(=O)NC2CCN(C)CC2)ccc1Nc1ncc(C(F)(F)F)c(N[C@@H]2CCC[C@@H]2NC(C)=O)n1 [Example I-105] | 38 nM |

Other lines, results leading:

| IC50 | Compound |
| --- | --- |
| 1 nM | CCN1CCC(NC(=O)c2ccc(Nc3ncc(Br)c(N[C@@H]4CCCC[C@H]4NC(C)=O)n3)c(OC)c2)CC1 [Example I-51] |
| 2 nM | COCCNC(=O)c1ccc(Nc2ncc(Br)c(N[C@@H]3CCCC[C@H]3NC(C)=O)n2)c(OC)c1 [Example I-52] |
| 2 nM | COc1cc(C(=O)NC2CCN(C3CC3)CC2)ccc1Nc1ncc(Br)c(N[C@@H]2CCCC[C@H]2NC(C)=O)n1 [Example I-55] |
| 3 nM | CNC(=O)c1ccc(Nc2ncc(Cl)c(N[C@@H]3CCCC[C@H]3NC(C)=O)n2)c(OC)c1 [Example I-56] |
| 3 nM | CCNC(=O)c1ccc(Nc2ncc(Cl)c(N[C@@H]3CCCC[C@H]3NC(C)=O)n2)c(OC)c1 [Example I-58] |
| 1 nM | COc1cc(C(=O)NCCN(C)C)ccc1Nc1ncc(Cl)c(N[C@@H]2CCCC[C@H]2NC(C)=O)n1 [Example I-59] |
| 3 nM | COc1cc(C(=O)NC2CCOCC2)ccc1Nc1ncc(Cl)c(N[C@@H]2CCCC[C@H]2NC(C)=O)n1 [Example I-60] |
| 1 nM | CCN1CCC(NC(=O)c2ccc(Nc3ncc(Cl)c(N[C@@H]4CCCC[C@H]4NC(C)=O)n3)c(OC)c2)CC1 [Example I-61] |
| 1 nM | COc1cc(C(=O)NC2CCCN(C)C2)ccc1Nc1ncc(Cl)c(N[C@@H]2CCCC[C@H]2NC(C)=O)n1 (some centres unmarked) [Example I-62] |
| 3 nM | COc1cc(C(=O)NC2CCN(C3CC3)CC2)ccc1Nc1ncc(Cl)c(N[C@@H]2CCCC[C@H]2NC(C)=O)n1 [Example I-63] |
| 1 nM | COc1cc(C(=O)NC2CCN(C)CC2)ccc1Nc1ncc(Cl)c(N[C@@H]2CCCC[C@H]2NC(C)=O)n1 [Example I-64] |
| 3 nM | COCCNC(=O)c1ccc(Nc2ncc(Cl)c(N[C@@H]3CCCC[C@H]3NC(C)=O)n2)c(OC)c1 [Example I-65] |
| 0.95 nM | COc1cc(C(=O)NCCN(C)C)ccc1Nc1ncc(C(F)(F)F)c(N[C@@H]2CCCC[C@H]2N(C)C(C)=O)n1 [Example I-73] |
| 1 nM | COc1cc(C(=O)NC2CCCN(C)C2)ccc1Nc1ncc(C(F)(F)F)c(N[C@@H]2CCCC[C@H]2N(C)C(C)=O)n1 (some centres unmarked) [Example I-74] |
| 3 nM | CNCc1ccc(Nc2ncc(C(F)(F)F)c(N[C@@H]3CCCC[C@H]3NC(=O)C3CCC3)n2)c(OC)c1 [Example I-75] |
| 1 nM | CNCc1ccc(Nc2ncc(C(F)(F)F)c(N[C@@H]3CCCC[C@H]3NC(C)=O)n2)c(OC)c1 [Example I-76] |
| 2 nM | CCC(=O)N[C@@H]1CCCC[C@H]1Nc1nc(Nc2ccc(CNC)cc2OC)ncc1C(F)(F)F [Example I-77] |
| 3 nM | CNCc1ccc(Nc2ncc(C(F)(F)F)c(N[C@@H]3CCCC[C@H]3NC(=O)C(C)C)n2)c(OC)c1 [Example I-79] |
| 3 nM | CCC(=O)N(C)[C@@H]1CCCC[C@H]1Nc1nc(Nc2ccc(C(=O)NC3CCN(C)CC3)cc2OC)ncc1C(F)(F)F [Example I-81] |
| 0.98 nM | COc1cc(C(=O)NC2CCN(C)CC2)ccc1Nc1ncc(C(F)(F)F)c(N[C@@H]2CCCC[C@H]2N(C)C(C)=O)n1 [Example I-82] |
| 2 nM | CNC(=O)c1cc(OC)c(Nc2ncc(C(F)(F)F)c(N[C@@H]3CCCC[C@H]3NC(C)=O)n2)cc1F [Example I-85] |
| 2 nM | CCN1CCC(NC(=O)c2cc(OC)c(Nc3ncc(C(F)(F)F)c(N[C@@H]4CCCC[C@H]4NC(C)=O)n3)cc2F)CC1 [Example I-87] |
| 2 nM | COc1cc(C(=O)NC2CCCN(C)C2)c(F)cc1Nc1ncc(C(F)(F)F)c(N[C@@H]2CCCC[C@H]2NC(C)=O)n1 (some centres unmarked) [Example I-88] |
| 2 nM | COc1cc(C(=O)NC2CCN(C)CC2)ccc1Nc1ncc(C(F)(F)F)c(N[C@@H]2CCCC[C@H]2N2CCCC2=O)n1 [Example I-97] |
| 2 nM | COc1cc(N2CCN(C)CC2)ccc1Nc1ncc(C(F)(F)F)c(N[C@@H]2CCCC[C@H]2N(C)C(C)=O)n1 [Example I-101] |
| 1 nM | COc1cc(C(=O)N[C@H]2CCCN(C)C2)ccc1Nc1ncc(C(F)(F)F)c(N[C@@H]2CCCC[C@H]2N(C)C(C)=O)n1 [Example I-107] |
| 1 nM | COc1cc(C(=O)NC2CCC(N(C)C)CC2)ccc1Nc1ncc(C(F)(F)F)c(N[C@@H]2CCCC[C@H]2N(C)C(C)=O)n1 (some centres unmarked) [Example I-108] |
| 1 nM | COc1cc(C(=O)NC2CCN(C(C)C)CC2)ccc1Nc1ncc(C(F)(F)F)c(N[C@@H]2CCCC[C@H]2N(C)C(C)=O)n1 [Example I-109] |
